# Measured values: patent US7550425B2, “Diuretic peptide conjugates” (Zealand Pharma A/S, priority 2000, dated 2009)
# Like-named read-outs stand apart in the source and are kept apart here. Peptide text beside a SMILES is read from it.
# Columns and labels:
# [1] = biological target: T1, hORL1 receptor (Homo sapiens, UniProt P41146); assay: Binding to human ORL1 receptor expressed in CHO cells; design: expressed in transfected cells; host or cells: CHO
# [2] = biological target: T1, hORL1 receptor; assay: Efficacy: inhibition of forskolin-induced cAMP formation, hORL1 in CHO cells; type: cell-based; design: expressed in transfected cells; host or cells: CHO
# Text: The ORL1 receptor is negatively coupled to cAMP and thus the effect of ORL1 agonists are detected as an inhibition of forskolin-incuced cAMP formation. Six compounds of the invention have been tested for efficacy on hORL1 receptor expressed in CHO cells.
# [3] = biological target: T2, human ORL1 receptor (human, UniProt P41146 1-370); assay: cell-based or functional assay
# T2 sequence (P41146 whole entry): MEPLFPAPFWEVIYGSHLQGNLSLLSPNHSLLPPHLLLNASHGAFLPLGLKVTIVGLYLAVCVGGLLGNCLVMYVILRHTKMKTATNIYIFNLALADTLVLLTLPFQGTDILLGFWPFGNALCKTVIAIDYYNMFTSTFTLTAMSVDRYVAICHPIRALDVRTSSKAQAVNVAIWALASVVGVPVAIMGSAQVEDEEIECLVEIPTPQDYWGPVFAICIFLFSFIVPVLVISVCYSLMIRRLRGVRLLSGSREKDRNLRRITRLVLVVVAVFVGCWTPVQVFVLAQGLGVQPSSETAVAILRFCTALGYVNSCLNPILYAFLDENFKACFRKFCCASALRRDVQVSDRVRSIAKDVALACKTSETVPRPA
# [4] = test system: nociceptin-induced smooth muscle relaxation in mouse vas deferens; assay: Mouse vas deferens assay: antagonism of nociceptin-induced relaxation (Schild pA2); settings: Schild equation; antagonism of nociceptin-induced relaxation; n = 4
# Procedure: (§1) The vas deferens from male NMRI albino mice weighing 30-40 g were placed in a SCHULER organ bath Type 809, Hugo Sachs Elektronik, Germany, and perfused with a 37° C., modified Krebs solution (NaCl 6,9 g/L, KCl 0.35 g/L, KH2PO4 0.16 g/L, NaHCO3 2.1 g/L, Glucose H2O 2.0 g/L, CaCl2 2.52 mL/L). The solution was gassed with carbogen (95% O2 and 5% CO2) throughout the experiment. The tissue was electrically stimulated through two silver electrodes directly in the organ bath using a HSE Stimulator I Type 215. Stimulation of the tissue was performed by applying a supramaximal voltage (15 Volts) in trains of 10 square pulses every 60 s, each of 1 ms duration with a frequency of […]. Concentration-response curves were performed by adding test substances that relax mouse vas deferens smooth muscles cumulatively to the organ baths. The test substances used in the assay were nociceptin in an isotonic saline solution, Compound 1 (as the trifluoroacetate in an isotonic saline solution), Compound 2 (as the trifluoroacetate in an isotonic saline solution), and the hexapeptide Ac-RYYRWK-NH2 (SEQ ID NO: 1) (as the trifluoroacetate in an isotonic saline solution).
# The effects of Ac-RYYRWK-NH2 (SEQ ID NO: 1) and Compound 1 on nociceptin-induced relaxation in the mouse vas deferens assay were also tested. […] Using the Schild equation ^[7], the pA2 values which indicates affinity of a compound as an antagonist were calculated.
# [5] = In vitro stability in heparinised human plasma; type: in vitro ADME
# Procedure: In addition, the degradation of Compound 1 of the invention has been studied in heparinised human plama.
# The stability of peptides is analysed in human plasma. The peptides are incubated at 37° C. in plasma and samples taken at approx. 8 regular intervals between t=0 and t=390 min for Compound 1 and nociceptin-NH2, and at 9 intervals between t=0 and t=32 min for Compound CE1 are analysed by HPLC. […] This is done by subsequent injections of the drug, plasma, and a co-injection with the drug and the plasma, followed by optimisation of the LC method parameters until a satisfactory separation is obtained. Three parallel experiments are performed for each plasma type. 100 μl of peptide is mixed with 900 μl plasma at t=0 and incubated at 37° C. (drug-plasma mixture conc. 0.1 mg/ml). Samples of 100 μl of the drug-plasma mixture are removed at appropriate intervals and the degradation stopped by precipitation of the sample with 10 μl MeCN:TFA 50:50 v/v. A control plasma sample without the drug treated in the same manner is also taken. The plasma samples are centrifuged for 15 min. at 12,000 rpm (Eppendorf centrifuge) at ambient temperature. The resulting supernatant solution is transferred to 300 μl HP autosamler vials and analyzed by HPLC. HPLC analysis are performed as follows:
# Ac-RYYRWK-NH2 (SEQ ID NO: 1) and Compound 1
# The samples are analysed in the following order: blank, the peptide at 0.1 mg/mL, the plasma without the peptide, the three parallel samples for t=0, the three parallel samples for t=5 min. the three parallel samples for t=60 min. etc. And finally the three parallel samples for t=0 are repeated to make sure that there have been no degradation or other failure during the analyses. The sample concentrations (peak height in mAU) are plotted vs. time and fitted to a function describing a mono exponential decay (Excel). The half-lives of the peptides in plasma are presented in Table 7 as mean (n=3)±standard deviation.
# [6] = test system: mouse vas deferens; assay: Mouse vas deferens assay: inhibition of electrically-induced contraction; settings: cumulative addition; data not shown
# Text: The compounds of the present invention are pharmacologically active, e.g. as nociceptin agonists or partial agonists, and a useful method of showing activity is described by Hughes J., Kosterlitz H. W., Leslie F. M.: Effect of morphine on adrenergic transmission in the mouse vas deferens. Assessment of agonist and antagonist potencies of narcotic analgesics^[4]. The isolated electrically stimulated mouse vas deferens preparation has been widely used to evaluate the functional pharmacological actions of opioid agonists and antagonists in vitro^[5].
# as §1
# [7] = In vitro stability in heparin stabilised mouse plasma; type: in vitro ADME; settings: heparinised mouse plasma, 37° C., read-out: half-life t½ of degradation
# Procedure: Degradation of peptides is almost exclusively seen in the presence of enzymes, e.g. in the bloodstream. An important feature of a putative drug is whether it is quickly degraded in vivo or whether it is able to conduct its effects over a longer period of time. To be able to examine the stability of the peptide conjugates of the present invention degradation was tested in heparin stabilised mouse plasma (obtained from Harlan Seralab, UK).
# The stability studies were run in triplicate. 100 μL of a 1 mg/mL solution of the test compound (peptide conjugate) was added to an Eppendorf tube, containing 900 μL plasma, incubated at 37° C. Immediately after addition, a sample of 100 μL was removed and added to an Eppendorf tube, containing 10 μL of extraction solution (50% TFA (trifluoroacetic acid) in MeCN, v/v). This sample constitutes t=0. […] The samples are centrifuged at 20,000×g, and the supernatant was transferred to vials and analysed by high-performance liquid chromatography (HPLC).
# The analysis was performed on a HP1100 HPLC with a quaternary pump. The column used was a Vydac 201SP5215, and the apparatus comprises an autosampler, a column oven, a variable UV detector and a fluorescence detector. […] These values were transferred to Microsoft Excel, where half-lives (t½) and rate constant (kobs) for Ac-RYYRWK-NH2 (SEQ ID NO: 1) and Compound 1 were determined by fitting to the equation.
# [8] = biological target: T2, human ORL1 receptor; assay: displacement of [3H]-labeled nociceptin, HEK293 cells transfected with the human ORL1 receptor
# [9] = biological target: T2, human ORL1 receptor; assay: cell-based or functional assay; remark: listed apart in the source
# [10] = biological target: T2, human ORL1 receptor; assay: binding to hORL1 receptor expressed in CHO cells, one experiment
# [11] = biological target: T2, human ORL1 receptor; assay: cell-based or functional assay; remark: listed apart in the source
# T1 sequence (P41146 whole entry): as above
molecule,measurement,setting,value
"CC(=O)N[C@H](CCCNC(=N)N)C(=O)N[C@H](Cc1ccc(O)cc1)C(=O)N[C@H](Cc1ccc(O)cc1)C(=O)N[C@H](CCCNC(=N)N)C(=O)N[C@H](Cc1c[nH]c2ccccc12)C(=O)N[C@H](CCCCN)C(=O)N[C@H](CCCCN)C(=O)N[C@H](CCCCN)C(=O)N[C@H](CCCCN)C(=O)N[C@H](CCCCN)C(=O)N[C@H](CCCCN)C(=O)N[C@H](CCCCN)C(N)=O [Compound 8, Ac-RYYRWKKKKKKK-NH2 (all D)] (HELM PEPTIDE1{[ac].[dR].[dY].[dY].[dR].[dW].[dK].[dK].[dK].[dK].[dK].[dK].[dK].[am]}$$$$V2.0)",IC50,[1],78 nM
same,EC50,[2],59 nM
"CC(=O)N[C@H](CCCCN)C(=O)N[C@H](CCCCN)C(=O)N[C@H](CCCCN)C(=O)N[C@H](CCCCN)C(=O)N[C@H](CCCCN)C(=O)N[C@H](CCCCN)C(=O)N[C@H](CCCCN)C(=O)N[C@H](Cc1c[nH]c2ccccc12)C(=O)N[C@H](CCCNC(=N)N)C(=O)N[C@H](Cc1ccc(O)cc1)C(=O)N[C@H](Cc1ccc(O)cc1)C(=O)N[C@H](CCCNC(=N)N)C(N)=O [Compound 7, Ac-KKKKKKKWRYYR-NH2 (all D)] (HELM PEPTIDE1{[ac].[dK].[dK].[dK].[dK].[dK].[dK].[dK].[dW].[dR].[dY].[dY].[dR].[am]}$$$$V2.0)",IC50,[1],> 100 nM
Compound 8 Ac-D-Arg-D-Tyr-D-Tyr-D-Arg-D-Trp-D-Lys-D-Lys-D-Lys-D-Lys-D-Lys-D-Lys-D-Lys-NH2 (peptide),"Efficacy EC50 (nM), inhibition of forskolin-induced cAMP formation",[3],59 nM
"Ac-RYYRWK-NH2 [Compound CE1, Ac-Arg-Tyr-Tyr-Arg-Trp-Lys-NH2, reference compound]",pA2 value,[4],7.8 (n = 4)
same,half-life at 0.1 mg/ml,"[5]; 37° C., mean (n=3) +/− deviation, read-out: T1/2 in min (degradation in human heparinised plasma)",50.7 min
same,half-life at 0.1 mg/ml,[5]; read-out: half life in plasma,< 60 min
same,potency order for inhibition of electrically-induced contraction of the mouse vas deferens,[6],nociceptin>Compound 1=Compound 2>>Ac-RYYRWK-NH2
same,half-life at 0.1 mg/mL,[7],2 to 5 min
"Ac-RYYRWKKKKKKK-NH2 (also: trifluoroacetate salt, Synthetic peptide conjugate; the primary product is the trifluoroacetate salt; also called Compound I) [Compound 1 Ac-Arg-Tyr-Tyr-Arg-Trp-Lys-Lys-Lys-Lys-Lys-Lys-Lys-NH2]",Ki,[8],0.26 nM
same,"Efficacy EC50 (nM), inhibition of forskolin-induced cAMP formation",[9],0.58 nM
same,IC50,[10],0.32 nM
same,"inhibition of forskoline-induced formation of cAMP, EC50",[11],0.54 nM
same,"inhibition of forskoline-induced formation of cAMP, relative maximum relative to nociceptin",[11],92%
